These results are taken from patent US4940705A, “N-substituted derivatives of 1-desoxynojirimycin and 1-desoxymannonojirimycin and pharmaceutical use” (Bayer Aktiengesellschaft, priority 1987, dated 1990).

The subject of one series is Visna virus. As to the kind of experiment: Visna virus test: inhibition of virus-induced cytopathic effect / virus multiplication in infected cell cultures. It is filed as cell-based. The conditions noted are these: Visna-maedi virus, 168 h, sheep fibroblast cells, 7 days at 37° C., Table 1, read-out: 2 MIC (minimum concentration at which an inhibition of virus multiplication was still observed). The protocol:
In cell cultures which are infected with Visna virus, pronounced virus-induced, cytopathic effects appear 5 to 10 days after infection. By treatment of the infected cell cultures with the compounds according to the invention, the appearance of these cytopathic effects could be prevented.
(§1) The Visna virus test was carried out by the method of O. Narayan et al., Journal of Infectious Diseases 135, 5, 1977, 800-806. For this, the compounds according to the invention were diluted to non-cytotoxic concentrations in culture medium in 96-well microtiter plates. Subsequently, sheep fibroblast cells (5×10^4 cells per well) in production medium were added to each well. Each well then contained 50 μl of a Visna virus solution having a titre of about 2.5×10^4TCID50 (TCID=tissue culture infectious dose). This virus dose corresponds to an MOI (multiplicity of infection) of about 0.05.
The infected and treated cells and the controlled cells were incubated for 7 days at 37° C. and 5% CO2.
On appearance of the virus-induced cytopathogenic effect in the untreated virus control, the cultures were fixed using formalin and subsequently stained with a Giemsa solution.
(§2) Herein, MCC denotes cytotoxicity and MIC denotes the minimum concentration at which an inhibition of virus multiplication was still observed.
On the technique in general: Protection from cytopathic effect is a common read-out in antiviral testing.

A short description of another series: Cytotoxicity (MCC). The conditions noted are these: sheep, sheep fibroblast cells; MCC denotes cytotoxicity; Table 1. It is filed as cell-based. As to the method:
as §1, §2

Values after ≈ are worked out from the molar mass of the structure shown.

Take `COc1ccc(NC(=O)CCN2C[C@H](O)[C@@H](O)[C@H](O)[C@H]2CO)cc1OC` [Example 24, N-(3,4-Dimethoxyphenyl)-3-(1,5-didesoxy-1,5-imino-D-glucit-N-yl)propionamide]: the MIC in the series on Visna virus came to 125 µg/mL (≈ 337 µM). Also, the MCC in “Cytotoxicity (MCC)” was greater than 1000 µg/mL.
Turning to `O=C(CCN1C[C@H](O)[C@@H](O)[C@H](O)[C@H]1CO)N1CCN(c2ccccc2[N+](=O)[O-])CC1` [Example 94, 3-(1,5-Didesoxy-1,5-imino-D-glucit-N-yl)propionyl-1-(4-2-nitrophenyl)piperazine], in the series with Visna virus, the MIC is 500 µg/mL (≈ 1180 µM). In addition, the MCC in “Cytotoxicity (MCC)” is greater than 1000 µg/mL.
Taken in the same sequence, the figures for `O=C(CCN1C[C@H](O)[C@@H](O)[C@H](O)[C@H]1CO)Nc1ccc(OC(F)(F)C(F)Cl)cc1` (stereo partly drawn) [Example 12, N-[4-(2-Chloro-1,1,2-trifluoroethoxy)phenyl]-3-(1,5-didesoxy-1,5-imino-D-glucit-N-yl)propionamide] were 250 µg/mL (≈ 565 µM) and 1000 µg/mL.
For the compound `O=C(CCN1C[C@H](O)[C@@H](O)[C@H](O)[C@H]1CO)N1CCSCC1` [Example 100, 3-(1,5-Didesoxy-1,5-imino-D-glucit-N-yl)propionyl-1-thiomorpholide], the MIC with Visna virus was 500 µg/mL (≈ 1560 µM). The compound also came in with an MCC in “Cytotoxicity (MCC)” greater than 1000 µg/mL.
The like results for `CC(C)(C)c1ccc(NC(=O)CCN2C[C@H](O)[C@@H](O)[C@H](O)[C@H]2CO)cc1` [Example 7, N-(4-Tert.-butylphenyl)-3-(1,5-didesoxy-1,5-imino-D-glucit-N-yl)propionamid] were, in that order, 500 µg/mL (≈ 1360 µM) and greater than 1000 µg/mL.
In the case of `CCCCNC(=O)CCN1C[C@H](O)[C@@H](O)[C@H](O)[C@H]1CO` [Example 104, N-Butyl-3-(1,5-didesoxy-1,5-imino-D-glucit-N-yl)propionamide], the MIC in the series on Visna virus was 250 µg/mL (≈ 861 µM). Moreover, the MCC in the series “Cytotoxicity (MCC)” was greater than 1000 µg/mL.
Taken in the same sequence, the figures for `O=C(CCN1C[C@H](O)[C@@H](O)[C@H](O)[C@H]1CO)Nc1ccc(F)cc1F` [Example 18, N-(2,4-Difluorophenyl)-3-(1,5-didesoxy-1,5-imino-D-glucit-N-yl)propionamide] were 500 µg/mL (≈ 1440 µM) and greater than 1000 µg/mL.
Consider `O=C(CCN1C[C@@H](O)[C@@H](O)[C@H](O)[C@H]1CO)Nc1ccc(F)c(F)c1` [Example 60, N-(3,4-Difluorophenyl)-3-(1,5-didesoxy-1,5-imino-D-mannit-n-yl)propionamide], for which the MIC in the series with Visna virus is 500 µg/mL (≈ 1440 µM). The same compound displayed an MCC in the series “Cytotoxicity (MCC)” greater than 1000 µg/mL.
Taken in the same sequence, the figures for `C=CCOc1ccc(NC(=O)CCN2C[C@@H](O)[C@@H](O)[C@H](O)[C@H]2CO)cc1` [Example 51, N-(4-Allyloxyphenyl)-3-(1,5-didesoxy-1,5-imino-D-mannit-N-yl)propionamide] were 250 µg/mL (≈ 682 µM) and 1000 µg/mL.
Taken in the same sequence, the figures for `O=C(CCN1C[C@H](O)[C@@H](O)[C@H](O)[C@H]1CO)NCC(=O)c1ccccc1` [Example 90] were 250 µg/mL (≈ 709 µM) and 1000 µg/mL.
Taken in the same sequence, the figures for `O=C(CCN1C[C@@H](O)[C@@H](O)[C@H](O)[C@H]1CO)N1CCN(c2ccc(F)cc2)CC1` [Example 82, 3-(1,5-Didesoxy-1,5-imino-D-mannit-N-yl)-propionyl-1-(4-p-fluorophenyl)piperazine] were 500 µg/mL (≈ 1260 µM) and greater than 1000 µg/mL.
As to `Cc1ccc(N2CCN(C(=O)CCN3C[C@H](O)[C@@H](O)[C@H](O)[C@H]3CO)CC2)cc1` [Example 87, 3-(1,5-Didesoxy-1,5-imino-D-glucit-N-yl)-propionyl-1-(4-tolyl)piperazine], the MIC in the series on Visna virus came out at 250 µg/mL (≈ 635 µM). The compound further came in with an MCC in “Cytotoxicity (MCC)” greater than 1000 µg/mL.
As for `O=C(CCN1C[C@H](O)[C@@H](O)[C@H](O)[C@H]1CO)N1CCN(c2ccc(F)cc2)CC1` [Example 41, 3-(1,5-Didesoxy-1,5-imino-D-glucit-N-yl)propionyl-1-(4-p-fluorophenyl)piperazine], the MIC with Visna virus came out at 125 µg/mL (≈ 315 µM). Further, the MCC in the series “Cytotoxicity (MCC)” came to 1000 µg/mL.
Taken in the same sequence, the figures for `CCOc1ccc(NC(=O)CCN2C[C@H](O)[C@@H](O)[C@H](O)[C@H]2CO)cc1` [Example 35, N-(4-Ethoxyphenyl)-3-(1,5-didesoxy-1,5-imino-D-glucit-N-yl)propionamide] were 15 µg/mL (≈ 42.3 µM) and 250 µg/mL.
Regarding `CC(C)c1ccccc1NC(=O)CCN1C[C@H](O)[C@@H](O)[C@H](O)[C@H]1CO` [Example 14, N-(2-Isopropylphenyl)-3-(1,5-didesoxy-1,5-imino-D-glucit-N-yl)propionamide], in the series on Visna virus, the MIC turned out to be 125 µg/mL (≈ 355 µM). In addition, the MCC in “Cytotoxicity (MCC)” is greater than 1000 µg/mL.
Taken in the same sequence, the figures for `COc1cc(NC(=O)CCN2C[C@H](O)[C@@H](O)[C@H](O)[C@H]2CO)cc(OC)c1OC` [Example 23, N-(3,4,5-Trimethoxyphenyl)-3-(1,5-didesoxy-1,5-imino-D-glucit-N-yl)propionamide] were 75 µg/mL (≈ 187 µM) and 150 µg/mL.
Taken in the same sequence, the figures for `CCOc1ccc(NC(=O)CCN2C[C@@H](O)[C@@H](O)[C@H](O)[C@H]2CO)cc1` [Example 76, N-(4-Ethoxyphenyl)-3-(1,5-didesoxy-1,5-imino-D-mannit-N-yl)propionamide] were 500 µg/mL (≈ 1410 µM) and greater than 1000 µg/mL.
For the compound `O=C(CCN1C[C@H](O)[C@@H](O)[C@H](O)[C@H]1CO)NCc1ccccn1` [Example 38, N-(2-Pyridylmethyl)-3-(1,5-didesoxy-1,5-imino-D-glucit-N-yl)propionamide], the MIC in the series with Visna virus came to 250 µg/mL (≈ 768 µM). Besides, the MCC in “Cytotoxicity (MCC)” was 1000 µg/mL.
Taken in the same sequence, the figures for `COc1cc(NC(=O)CCN2C[C@@H](O)[C@@H](O)[C@H](O)[C@H]2CO)cc(OC)c1` [Example 66, N-(3,5-Dimethoxyphenyl)-3-(1,5-didesoxy-1,5-imino-D-mannit-N-yl)propionamide] were 500 µg/mL (≈ 1350 µM) and 1000 µg/mL.
Turning to `O=C(CCN1C[C@H](O)[C@@H](O)[C@H](O)[C@H]1CO)N1CCN(c2ccccc2F)CC1` [Example 92, 3-(1,5-Didesoxy-1,5-imino-D-glucit-N-yl)propionyl-1-(4-2-fluorophenyl)piperazine], the MIC in the series with Visna virus was 250 µg/mL (≈ 629 µM). The MCC in “Cytotoxicity (MCC)” was greater than 1000 µg/mL.
In the case of `O=C(CCN1C[C@H](O)[C@@H](O)[C@H](O)[C@H]1CO)NCc1cccs1` [Example 101, N-[(Thiophen-2-yl)-methyl]-3-(1,5-didesoxy-1,5-imino-D-glucit-N-yl)propionamide], the MIC in the series on Visna virus was found to be 125 µg/mL (≈ 378 µM). Besides, the MCC in “Cytotoxicity (MCC)” came out at 1000 µg/mL.
For `O=C(CCN1C[C@H](O)[C@@H](O)[C@H](O)[C@H]1CO)NCc1ccc(C(F)(F)F)cc1` [Example 89, N-(4-Trifluoromethylbenzyl)-3-(1,5-didesoxy-1,5-imino-D-glucit-N-yl)propionamide], in the series on Visna virus, the MIC was 500 µg/mL (≈ 1270 µM). Further, in the series “Cytotoxicity (MCC)”, the MCC worked out at 1000 µg/mL.
For `N#Cc1cccc(NC(=O)CCN2C[C@@H](O)[C@@H](O)[C@H](O)[C@H]2CO)c1` [Example 68, N-(3-Cyanophenyl)-3-(1,5-didesoxy-1,5-imino-D-mannit-N-yl)propionamide], in the series with Visna virus, the MIC was 250 µg/mL (≈ 745 µM). In “Cytotoxicity (MCC)”, this compound showed an MCC of 500 µg/mL.
The like results for `O=C(CCN1C[C@H](O)[C@@H](O)[C@H](O)[C@H]1CO)Nc1ccc(OCCO)cc1` [Example 40, N-[4-(2-Hydroxyethoxy)phenyl]-3-(1,5-didesoxy-1,5-imino-D-glucit-N-yl)propionamide] were, in that order, 15 µg/mL (≈ 40.5 µM) and greater than 1000 µg/mL.
For the compound `C[C@H](NC(=O)CCN1C[C@H](O)[C@@H](O)[C@H](O)[C@H]1CO)c1ccccc1` [Example 102, N-[(1S)-1-Phenethyl]-3-(1,5-didesoxy-1,5-imino-D-glucit-N-yl)propionamide], in the series with Visna virus, the MIC came to 125 µg/mL (≈ 369 µM). In the series “Cytotoxicity (MCC)”, this compound gave an MCC greater than 1000 µg/mL.
Taken in the same sequence, the figures for `COc1cc(NC(=O)CCN2C[C@H](O)[C@@H](O)[C@H](O)[C@H]2CO)cc(OC)c1` [Example 25, N-(3,5-Dimethoxyphenyl)-3-(1,5-didesoxy-1,5-imino-D-glucit-N-yl)propionamide] were 250 µg/mL (≈ 675 µM) and greater than 1000 µg/mL.
Taken in the same sequence, the figures for `C[C@@H](NC(=O)CCN1C[C@H](O)[C@@H](O)[C@H](O)[C@H]1CO)c1ccccc1` [Example 103] were 125 µg/mL (≈ 369 µM) and greater than 1000 µg/mL.
In the case of `O=C(CCN1C[C@@H](O)[C@@H](O)[C@H](O)[C@H]1CO)Nc1ccc2c(c1)OCO2` [Example 72, N-(3,4-Methylenedioxyphenyl)-3-(1,5-didesoxy-1,5-imino-N-yl)propionamide], in the series on Visna virus, the MIC amounted to 500 µg/mL (≈ 1410 µM). The compound further came in with an MCC in “Cytotoxicity (MCC)” greater than 1000 µg/mL.
Turning to `O=C(CCN1C[C@H](O)[C@@H](O)[C@H](O)[C@H]1CO)Nc1ccc(C(F)(F)F)cc1` [Example 11, N-(4-Trifluoromethylphenyl)-3-(1,5-didesoxy-1,5-imino-D-glucit-N-yl)propionamide], the MIC with Visna virus was 500 µg/mL (≈ 1320 µM). In “Cytotoxicity (MCC)”, the MCC was greater than 1000 µg/mL.
Taken in the same sequence, the figures for `O=C(CCN1C[C@H](O)[C@@H](O)[C@H](O)[C@H]1CO)N1CCN(c2ncccn2)CC1` [Example 99, 3-(1,5-Didesoxy-1,5-imino-D-glucit-N-yl)-propionyl-1-(4-[2-pyrimidyl])piperazine] were 125 µg/mL (≈ 328 µM) and greater than 1000 µg/mL.
Consider `O=C(CCN1C[C@H](O)[C@@H](O)[C@H](O)[C@H]1CO)Nc1ccc(C2CCCCC2)cc1` [Example 28, N-(4-Cyclohexylphenyl)-3-(1,5-didesoxy-1,5-imino-D-glucit-N-yl)propionamide], for which the MIC in the series with Visna virus came to 500 µg/mL (≈ 1270 µM). In addition, in the series “Cytotoxicity (MCC)”, the MCC was greater than 1000 µg/mL.
